In one data set the test system is human MATE2. The following applies: human MATE2 ref 40; cited from earlier work.
Another data set concerns the target zebrafish Mate6 (Danio rerio, UniProt A1L2E7). Description: DAPI inhibition assay, Mate6. In kind it is cell-based. As to the method:
(§1) HEK293T cells were transiently transfected as described previously[31] using the PEI (polyethyleneimine) reagent in 48-well plates. Cells were in parallel transfected with pcDNA3.1/His/LacZ plasmid and transfection efficiency was evaluated 24 h after transfection with the LacZ staining protocol.
(§2) HEK293T cells overexpressing respective single zebrafish Mate transporter were used for further experiments. […] DAPI fluorescence was measured at 360 and 460 nm […], respectively. The uptake into vector-transfected HEK293T cells (mock cells) was subtracted to obtain transporter-specific uptake.
(§3) Inhibition assays using DAPI as a fluorescent substrate were performed in the same transport medium. […] Compounds tested for interaction were checked using at least four concentrations but only a representative concentration (with the highest response or the largest concentration in solubility range) is shown.
(§4) For the purpose of IC50 calculations, data were fitted to the sigmoidal four-parameter dose-response model (variable slope),

The next data set deals with zebrafish Mate4 (Danio rerio, UniProt U3Q0C3). Description: DAPI inhibition assay, Mate4. In kind it is cell-based. As to the method: as §1, §2, §3, §4
For another data set, the system named is human MATE1. The following applies: cited from earlier work.
For the next data set, the target named is zebrafish Mate7 (Danio rerio, UniProt U3PTD6). Description: DAPI inhibition assay, Mate7. It is filed as cell-based. To be noted: for interaction strength: class by IC50 of DAPI uptake inhibition. As to the method: as §1, §2, §3, §4
The next data set deals with zebrafish Mate8 (Danio rerio, UniProt A0A8M6YZ09). Description: DAPI inhibition assay, Mate8. It is filed as cell-based. To be noted: for interaction strength: class by IC50 of DAPI uptake inhibition. As to the method: as §1, §2, §3, §4
In another data set the target is T1, zebrafish Mate3 (Danio rerio, UniProt A1L1P9).
T1 sequence (A1L1P9 1-590): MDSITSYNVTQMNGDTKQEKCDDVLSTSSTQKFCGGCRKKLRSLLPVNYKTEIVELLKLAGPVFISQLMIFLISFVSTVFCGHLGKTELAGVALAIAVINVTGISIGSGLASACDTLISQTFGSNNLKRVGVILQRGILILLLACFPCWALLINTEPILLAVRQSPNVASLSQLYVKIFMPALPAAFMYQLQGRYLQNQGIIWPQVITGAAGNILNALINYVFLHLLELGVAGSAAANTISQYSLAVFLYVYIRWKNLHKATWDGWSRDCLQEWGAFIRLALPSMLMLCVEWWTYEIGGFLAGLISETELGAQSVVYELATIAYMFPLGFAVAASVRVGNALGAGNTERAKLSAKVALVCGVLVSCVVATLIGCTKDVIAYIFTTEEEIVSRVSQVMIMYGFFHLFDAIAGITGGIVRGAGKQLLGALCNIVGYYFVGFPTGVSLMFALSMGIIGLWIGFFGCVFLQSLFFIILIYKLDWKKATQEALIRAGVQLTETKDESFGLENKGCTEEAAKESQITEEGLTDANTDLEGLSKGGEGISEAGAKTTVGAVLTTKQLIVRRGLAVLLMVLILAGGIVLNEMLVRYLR
The data set is described as follows: DAPI inhibition assay, Mate3. To be noted: Mate3; inhibition of DAPI (2.5 μM) uptake; n = 3; NE = no effect in the compound solubility range; read-out: IC50. In kind it is cell-based. Set-up: expressed in transfected cells; host or cells: HEK293T. As to the method: as §1, §2, §3, §4

For a further data set, the system named is rat Mate1. The following applies: rat Mate1 ref 3; cited from earlier work.

Molecules are shown by their SMILES. Where two headings read alike, the source gives them in different places.

Chain of zebrafish Mate4 (U3Q0C3 entry or part of it): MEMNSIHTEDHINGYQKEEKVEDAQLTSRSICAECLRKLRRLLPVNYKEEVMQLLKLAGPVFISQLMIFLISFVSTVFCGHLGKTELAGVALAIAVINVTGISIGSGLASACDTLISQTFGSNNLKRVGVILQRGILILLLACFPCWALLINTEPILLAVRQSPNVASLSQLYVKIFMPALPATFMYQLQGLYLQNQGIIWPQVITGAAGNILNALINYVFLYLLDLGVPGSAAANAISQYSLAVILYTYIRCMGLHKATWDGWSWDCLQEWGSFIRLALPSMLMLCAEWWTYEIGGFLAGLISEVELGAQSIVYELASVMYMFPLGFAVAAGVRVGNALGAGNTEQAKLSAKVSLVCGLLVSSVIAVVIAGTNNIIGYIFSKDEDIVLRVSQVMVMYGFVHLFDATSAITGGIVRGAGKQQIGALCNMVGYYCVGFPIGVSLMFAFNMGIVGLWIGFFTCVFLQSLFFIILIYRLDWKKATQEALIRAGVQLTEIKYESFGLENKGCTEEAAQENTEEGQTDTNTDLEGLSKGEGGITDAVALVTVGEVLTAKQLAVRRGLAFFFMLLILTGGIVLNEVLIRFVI
Chain of zebrafish Mate6 (A1L2E7 entry or part of it): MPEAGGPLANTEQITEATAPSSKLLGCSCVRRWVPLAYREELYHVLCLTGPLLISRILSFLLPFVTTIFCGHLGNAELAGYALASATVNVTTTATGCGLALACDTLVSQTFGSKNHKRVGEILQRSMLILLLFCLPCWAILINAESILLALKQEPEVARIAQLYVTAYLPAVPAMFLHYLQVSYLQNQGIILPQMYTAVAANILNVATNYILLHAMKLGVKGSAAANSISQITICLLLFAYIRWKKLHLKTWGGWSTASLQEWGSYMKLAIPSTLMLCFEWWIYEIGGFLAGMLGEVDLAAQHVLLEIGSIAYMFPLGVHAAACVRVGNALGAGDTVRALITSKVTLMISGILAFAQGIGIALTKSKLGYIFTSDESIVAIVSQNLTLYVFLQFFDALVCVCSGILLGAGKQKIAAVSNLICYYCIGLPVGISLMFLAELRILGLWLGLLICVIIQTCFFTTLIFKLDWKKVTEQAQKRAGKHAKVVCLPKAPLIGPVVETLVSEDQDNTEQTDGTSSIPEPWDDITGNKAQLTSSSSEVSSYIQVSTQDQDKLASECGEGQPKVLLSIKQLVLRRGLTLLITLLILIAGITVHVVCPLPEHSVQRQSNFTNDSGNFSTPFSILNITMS
Chain of zebrafish Mate7 (U3PTD6 entry or part of it): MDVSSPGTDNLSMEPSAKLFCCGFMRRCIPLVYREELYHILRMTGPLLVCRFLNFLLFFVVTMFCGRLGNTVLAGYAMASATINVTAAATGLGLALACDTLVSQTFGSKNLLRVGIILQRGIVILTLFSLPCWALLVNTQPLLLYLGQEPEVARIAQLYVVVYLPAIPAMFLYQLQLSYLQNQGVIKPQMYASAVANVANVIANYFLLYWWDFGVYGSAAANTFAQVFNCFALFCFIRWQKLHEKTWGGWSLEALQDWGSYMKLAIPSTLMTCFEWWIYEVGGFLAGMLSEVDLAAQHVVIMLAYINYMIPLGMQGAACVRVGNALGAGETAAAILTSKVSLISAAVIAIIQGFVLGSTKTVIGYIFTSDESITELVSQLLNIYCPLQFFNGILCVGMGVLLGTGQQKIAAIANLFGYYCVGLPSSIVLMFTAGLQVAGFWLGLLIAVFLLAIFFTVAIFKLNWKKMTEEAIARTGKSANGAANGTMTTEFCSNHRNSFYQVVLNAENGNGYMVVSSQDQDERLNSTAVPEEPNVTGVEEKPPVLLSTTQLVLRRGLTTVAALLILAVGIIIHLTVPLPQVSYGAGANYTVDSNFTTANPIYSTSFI
Chain of zebrafish Mate8 (A0A8M6YZ09 entry or part of it): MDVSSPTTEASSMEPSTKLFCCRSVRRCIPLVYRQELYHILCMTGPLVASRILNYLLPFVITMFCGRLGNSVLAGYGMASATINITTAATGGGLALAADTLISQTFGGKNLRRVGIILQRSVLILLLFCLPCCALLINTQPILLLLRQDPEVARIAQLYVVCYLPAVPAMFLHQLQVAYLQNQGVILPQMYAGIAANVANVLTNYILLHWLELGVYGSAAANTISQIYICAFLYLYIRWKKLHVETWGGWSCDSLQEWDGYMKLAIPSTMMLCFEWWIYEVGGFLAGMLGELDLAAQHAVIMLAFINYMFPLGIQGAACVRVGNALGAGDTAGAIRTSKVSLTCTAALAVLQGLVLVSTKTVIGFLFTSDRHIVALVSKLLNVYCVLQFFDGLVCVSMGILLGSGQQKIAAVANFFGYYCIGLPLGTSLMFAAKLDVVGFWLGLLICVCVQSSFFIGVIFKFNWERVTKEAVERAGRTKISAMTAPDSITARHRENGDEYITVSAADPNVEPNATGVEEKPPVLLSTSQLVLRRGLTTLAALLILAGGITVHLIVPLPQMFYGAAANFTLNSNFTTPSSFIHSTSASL

The term Km denotes the concentration of substrate that gives half-maximal velocity. As usually defined, the IC50 is the concentration that inhibits the measured activity by half. For `Cc1ncc(C[n+]2csc(CCO)c2C)c(N)n1` [Thiamine, thiamine], the Km in the data set with human MATE2 was 3.9 µM; with human MATE1 (human MATE1 ref 40), 3.5 µM. The IC50 on zebrafish Mate6 (read-out: IC50) was 724 µM; at zebrafish Mate4 (read-out: IC50), 805 µM; at zebrafish Mate7 (read-out: IC50) it was 935 µM; at zebrafish Mate8 (read-out: IC50) it was 1900 µM. Further, the results for the interaction strength result on zebrafish Mate7 (Mate7) and on zebrafish Mate8 (Mate8) were “weak (IC50 of 100–999 μM was classified as weak interaction)” and “very weak (substances with IC50 above 1000 μM were considered very weak interactors)”, respectively.
On to `C[n+]1ccc(-c2ccccc2)cc1` [MPP^+, 1-methyl-4-phenylpyridinium, reference compound], for which the IC50 turned out to be 27.9 µM on zebrafish Mate6 (Mate6, inhibition of DAPI (1 μM) uptake, n = 3, NE = no effect in the compound solubility range, read-out: IC50); 434 µM at zebrafish Mate4 (Mate4, inhibition of DAPI (1 μM) uptake, n = 3, NE = no effect in the compound solubility range, read-out: IC50); 2430 µM on zebrafish Mate3; 93.6 µM on zebrafish Mate7 (Mate7, inhibition of DAPI (2.5 μM) uptake, n = 3, NE = no effect in the compound solubility range, read-out: IC50); 978 µM on zebrafish Mate8 (Mate8, inhibition of DAPI (1 μM) uptake, n = 3, NE = no effect in the compound solubility range, read-out: IC50). The Km in the data set with human MATE1 (human MATE1 ref 18) was 100 µM. For the same compound, the interaction strength entry on zebrafish Mate8 (Mate8) is recorded as “weak (IC50 of 100–999 μM was classified as weak interaction)”.
For the compound `CN/C(=N/CCSCc1nc[nH]c1C)NC#N` [Cimetidine, cimetidine, reference compound], the Km in the data set with rat Mate1 is 3 µM. For the same compound, the IC50 against zebrafish Mate6 came to 357 µM; against zebrafish Mate4, 134 µM; at zebrafish Mate7, 573 µM; on zebrafish Mate8, 4.5 µM. The interaction strength result was “weak (IC50 of 100–999 μM was classified as weak interaction)” on zebrafish Mate7 (Mate7) and “strong (Compounds with IC50 of 1–29 μM were designated as strong interactors)” on zebrafish Mate8 (Mate8).

These data come from PMC4928094, “The first characterization of multidrug and toxin extrusion (MATE/SLC47) proteins in zebrafish (Danio rerio)” (Scientific Reports, 2016).
